Values quoted from earlier work as cited in article PMC7211195 (Investigational New Drugs, 2019).

Parameters: method as in PMID 25547867
Conditions: cited from earlier work

CS(=O)(=O)CCNCc1ccc(-c2ccc3ncnc(Nc4ccc(OCc5cccc(F)c5)c(Cl)c4)c3c2)o1 [lapatinib, N-{3-Chloro-4-[(3-fluorobenzyl)oxy]phenyl}-6-[5-({[2-(methylsulfonyl)ethyl]amino}methyl)-2-furyl]-4-quinazolinamine]
patients with BM responding to lapatinib therapy: 2.6–6.0%
